Results from the supplement of paper PMC4862054.

Experiments:
Conditions in all cases: incubation time: 72 h
MCF-10A [1] = assay: normalised response (% of control), CellTox Green; higher = less cell death (100 = DMSO, 0 = benzethonium chloride kill control)
Method in brief: (§1)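 For each plate, 0.1 % DMSO was set to 100 and a positive kill control to 0. Breast cancer cell lines (20 µl suspension) were seeded into 384-well plates already holding compound at 5 concentrations in 10-fold steps over a 10,000-fold range chosen per compound, and incubated for 72 h. CellTox Green fluorescence at 485/520 nm was read before CellTiter-Glo luminescence, which followed 10 min at room temperature. Each value is the normalised signal at one concentration.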

HCC1937 [2] = assay: as above
Method in brief: as §1

CAL-51 [3] = assay: as above
Method in brief: as §1

DU-4475 [4] = assay: as above
Method in brief: as §1

MFM-223 [5] = assay: as above
Method in brief: as §1

MDA-MB-468 [6] = assay: as above
Method in brief: as §1

BT-474 [7] = assay: as above
Method in brief: as §1

HDQ-P1 [8] = assay: as above
Method in brief: as §1

HCC1599 [9] = assay: as above
Method in brief: as §1

CAL-148 [10] = assay: as above
Method in brief: as §1

MDA-MB-453 [11] = assay: as above
Method in brief: as §1

CAL-120 [12] = assay: as above
Method in brief: as §1

Hs578T [13] = assay: as above
Method in brief: as §1

CAL-85-1 [14] = assay: as above
Method in brief: as §1

MDA-MB-231 [15] = assay: as above
Method in brief: as §1

HCC1143 [16] = assay: as above
Method in brief: as §1

BT-549 [17] = assay: as above
Method in brief: as §1

MDA-MB-436 [18] = assay: as above
Method in brief: as §1

MCF-10A [19] = assay: normalised response (% of control), CellTiter-Glo; higher = more viable cells (100 = DMSO, 0 = benzethonium chloride kill control)
Method in brief: as §1

HCC1937 [20] = assay: as above
Method in brief: as §1

CAL-51 [21] = assay: as above
Method in brief: as §1

DU-4475 [22] = assay: as above
Method in brief: as §1

MFM-223 [23] = assay: as above
Method in brief: as §1

MDA-MB-468 [24] = assay: as above
Method in brief: as §1

BT-474 [25] = assay: as above
Method in brief: as §1

HDQ-P1 [26] = assay: as above
Method in brief: as §1

HCC1599 [27] = assay: as above
Method in brief: as §1

CAL-148 [28] = assay: as above
Method in brief: as §1

MDA-MB-453 [29] = assay: as above
Method in brief: as §1

CAL-120 [30] = assay: as above
Method in brief: as §1

Hs578T [31] = assay: as above
Method in brief: as §1

CAL-85-1 [32] = assay: as above
Method in brief: as §1

SK-BR-3 = assay: as above
Method in brief: as §1

MDA-MB-231 [33] = assay: as above
Method in brief: as §1

HCC1143 [34] = assay: as above
Method in brief: as §1

BT-549 [35] = assay: as above
Method in brief: as §1

MDA-MB-436 [36] = assay: as above
Method in brief: as §1

Structure (SMILES) | normalised response (MCF-10A [1]) [%] | normalised response (HCC1937 [2]) [%] | normalised response (CAL-51 [3]) [%] | normalised response (DU-4475 [4]) [%] | normalised response (MFM-223 [5]) [%] | normalised response (MDA-MB-468 [6]) [%] | normalised response (BT-474 [7]) [%] | normalised response (HDQ-P1 [8]) [%] | normalised response (HCC1599 [9]) [%] | normalised response (CAL-148 [10]) [%] | normalised response (MDA-MB-453 [11]) [%] | normalised response (CAL-120 [12]) [%] | normalised response (Hs578T [13]) [%] | normalised response (CAL-85-1 [14]) [%] | normalised response (MDA-MB-231 [15]) [%] | normalised response (HCC1143 [16]) [%] | normalised response (BT-549 [17]) [%] | normalised response (MDA-MB-436 [18]) [%] | normalised response (MCF-10A [19]) [%] | normalised response (HCC1937 [20]) [%] | normalised response (CAL-51 [21]) [%] | normalised response (DU-4475 [22]) [%] | normalised response (MFM-223 [23]) [%] | normalised response (MDA-MB-468 [24]) [%] | normalised response (BT-474 [25]) [%] | normalised response (HDQ-P1 [26]) [%] | normalised response (HCC1599 [27]) [%] | normalised response (CAL-148 [28]) [%] | normalised response (MDA-MB-453 [29]) [%] | normalised response (CAL-120 [30]) [%] | normalised response (Hs578T [31]) [%] | normalised response (CAL-85-1 [32]) [%] | normalised response (SK-BR-3) [%] | normalised response (MDA-MB-231 [33]) [%] | normalised response (HCC1143 [34]) [%] | normalised response (BT-549 [35]) [%] | normalised response (MDA-MB-436 [36]) [%]
CC(=O)c1c(C)c2cnc(Nc3ccc(N4CCNCC4)cn3)nc2n(C2CCCC2)c1=O [Palbociclib] (1000 nM) | 105 | 102 | 126 | 99 | 98.4 | 167 | 95.2 | 103 | 98.1 | 89.8 | 101 | 102 | 108 | 114 | 109 | 70.3 | 109 | 100 | 82.5 | 94.8 | 103 | 94.4 | 72.6 | 86.7 | 78.1 | 105 | 91.6 | 86.2 | 102 | 84.6 | 93.3 | 104 | 75.9 | 84 | 80.3 | 102 | 96.6
COc1cc(F)c(F)c(Nc2ccc(I)cc2F)c1NS(=O)(=O)C1(C[C@H](O)CO)CC1 [Refametinib] (1000 nM) | 92.6 | 113 | 101 | 57.4 | 99.6 | 120 | 99.7 | 82.9 | 95.8 | 99.3 | 106 | 86.8 | 109 | 46.6 | 39.2 | 70.5 | 115 | 97.5 | 28.3 | 79.4 | 99.3 | 0.17 | 75.9 | 72.7 | 62.4 | 54.5 | 116 | 89.2 | 96.3 | 66.1 | 80.1 | 52.2 | 82.4 | 59.4 | 77.2 | 95.7 | 78.4
